Source: publication PMC6748986, “Potent modulation of the CepR quorum sensing receptor and virulence in a Burkholderia cepacia complex member using non-native lactone ligands” (Scientific Reports, 2019)
Several values for one entry are separate records, joined by “and”; a condition that tells them apart may be missing. Equal entries are not always repeated.

Experiments:
B. multivorans ATCC17616 = test: Swimming motility assay (0.3% agar); format: cell-based; settings: 50 μM compound, 72 h, untreated = 100%
Description: We were interested to assess the effects of our lead CepR modulators on a phenotype under the control of QS in B. multivorans. However, very little work has been reported to directly link CepR activity in B. multivorans to any QS-controlled phenotype. […] Therefore, we chose to study the effects of compound treatment on both the swarming and swimming motility of B. multivorans (B. multivorans ATCC17616; see Methods).
Figure 3 B. multivorans motility assay data. Swimming motility was measured by spotting B. multivorans plus compound indicated in the center of M9 + 0.1% casamino acids + 0.3% agar in a 10 cm diameter petri dish. Area of the colony after 72 h incubation was calculated using ImageJ, normalized to the B. multivorans wild-type + vehicle (DMSO), and listed above each plate shown. TEXT PRINTED IN THE PICTURE: C8-AHL: 182% | E32: 195% | E35: 175% | E37: 173% | DMSO: 100% | A12: 55% | B12: 53% | E3: 58%
The motility assay was based on a previously reported procedure. B. multivorans was grown overnight with 50 μM compound at 37 °C and normalized to OD600 = 0.4, and then cells were washed with sterile water and resuspended with 50 μM fresh compound. Cells (5 μL) were spotted in the center of M9 + 0.1% Casamino Acids + 0.3% agar plates (100 mm diameter). Cells were grown for 72 h at 37 °C. Images were analyzed using ImageJ to calculate the area of the colony and normalized to the area of B. multivorans wild-type + vehicle (DMSO).

CepR [1] = target: T1, CepR (Burkholderia cenocepacia, UniProt B4EMD0); test: CepR antagonism in E. coli β-galactosidase reporter (Ec-reporter), competition against C8-AHL; format: cell-based, B. cenocepacia; settings: against 10 nM C8-AHL; for IC50 / Maximal Inhibition (%): Ec-reporter; for inhibition at 100 µM: read-out: Inh% (100-Act%)
T1 sequence (B4EMD0 1-239): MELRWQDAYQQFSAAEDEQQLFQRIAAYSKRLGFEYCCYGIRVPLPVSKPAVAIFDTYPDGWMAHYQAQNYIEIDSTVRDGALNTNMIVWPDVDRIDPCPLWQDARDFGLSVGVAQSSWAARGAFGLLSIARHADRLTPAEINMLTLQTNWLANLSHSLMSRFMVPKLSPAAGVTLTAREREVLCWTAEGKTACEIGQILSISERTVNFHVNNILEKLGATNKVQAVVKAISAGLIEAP
In short: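 CepR antagonism was measured in E. coli JLD271 (∆sdiA) carrying pJN105-cepR, which expresses B. cenocepacia CepR from an arabinose-inducible pBAD promoter, and pSC11-cepI, which fuses lacZ to the cepI promoter. Induced cells were grown 4 h with compound and 10 nM C8-AHL. β-Galactosidase activity was then read by CPRG cleavage at 37 °C after Z Buffer permeabilization.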

CepR [2] = target: T1, CepR; test: CepR agonism in E. coli β-galactosidase reporter (Ec-reporter) JLD271 [pJN105-cepR + pSC11-cepI]; format: cell-based, B. cenocepacia; settings: for Emax: read-out: Maximal Activation (%); for activation at 100 µM / Act%: Table S2, Ec-reporter, screening conc. 100 μM; for EC50 / EC50 (nM): agonism dose-response
In short: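 E. coli JLD271 (ΔsdiA) carrying arabinose-inducible CepR (27 mM L-arabinose) and cepI-lacZ fusion, grown 4 h with compound; β-galactosidase measured by CPRG cleavage at 37 °C (~30 min), normalized to OD600. Agonism compared with C8-AHL at 100 μM; screen at 100 μM or solubility limit, then dose-response; ≥3 trials.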

[3] = Ec-reporter, activity for 100 μM C8-AHL set to 100%, error ±10%
[4] = Table S3, Ec-reporter, screening conc. 100 μM

Row | Compound | Swimming motility, area of the colony normalized to B. multivorans wild-type + vehicle (DMSO) (B. multivorans ATCC17616) [%] | IC50 (CepR [1]) [nM] | Maximal Inhibition (%) (CepR [1]) | CepR agonism in words (CepR [2]; Ec-reporter) | Emax (CepR [2]; [3]) [%] | activation at 100 µM (CepR [2]) [%] | Act% (CepR [2]) [%] | inhibition at 100 µM (CepR [1]; [4]) [%] | EC50 fold higher in the Ec-reporter than in the Bm-reporter (CepR [2]; Ec- vs Bm-reporter) | EC50 (CepR [2]; Ec-reporter) | EC50 (nM) (CepR [2]; Ec-reporter) | Inh% (100-Act%) (CepR [1]; [4]) [%] | Maximal Activation (%) (CepR [2]; [3])
1 | CCCCCCCS(=O)(=O)N[C@H]1CCOC1=O [Compound A12] | 55 | 380 | 68 | failed to activate CepR | 46 | 46 | – | – | – | – | – | – | –
2 | O=C(Cc1cccc(C(F)(F)F)c1)N[C@H]1CCOC1=O [Compound E3] | 58 | 3300 | 77 | – | – | 6.6 | – | – | – | – | – | – | –
3 | O=C(CC1CCCC1)N[C@H]1CCOC1=O [Compound B12] | 53 | 3700 | 69 | – | – | 39 | – | – | – | – | – | – | –
4 | O=C(Cc1cccc(Br)c1)N[C@H]1CCOC1=O [Compound C8] | – | 2700 | 79 | – | – | – | 12 | – | – | – | – | – | –
5 | CCCCCCCC(=O)N[C@H]1CCOC1=O [Compound C8-AHL, N-octanoyl L-homoserine lactone, reference compound] | 182 | – | – | – | 100 | 100 | – | -30 | ~ 10 fold | 5 nM and 5.7 nM | – | – | –
6 | O=C(CCc1ccc(C(F)(F)F)cc1)N[C@H]1CCOC1=O [Compound E35] | 175 | – | – | – | 100 | 100 | – | -50 | – | 0.18 nM | sub-nanomolar | – | –
7 | O=C(CCc1ccc(I)cc1)N[C@H]1CCOC1=O [Compound E32] | 195 | – | – | – | 97 | 97 | – | -20 | – | 1.1 nM | – | – | –
8 | O=C(CCc1ccc([N+](=O)[O-])cc1)N[C@H]1CCOC1=O [Compound E37] | 173 | – | – | – | 95 | 95 | – | -30 | – | 0.19 nM | sub-nanomolar | – | –
9 | CCCCCC(O)CC(=O)N[C@H]1CCOC1=O (some centres unmarked) [3’OH-C8-AHL, reference compound] | – | – | – | – | – | – | 84 | – | – | 210 nM | – | -20 | 84
